Measured values: US12264170B2, “Antimicrobial organosilanes” (TOPIKOS SCIENTIFIC, INC., priority 2019, dated 2025)

Legend:
[1] = product dissolved in water, observation
[2] = Dissolution of isolated product in water; assay type: physicochemical; details: observation

| Compound | stability in water [1] | dissolution in water [2] |
| --- | --- | --- |
| CCCCCCCCCCCCCCCCC[N+](C)(C)CCC[Si](OCCN(CCO)CC(O)CS(=O)(=O)[O-])(OCCN(CCO)CC(O)CS(=O)(=O)O)OCCN(CCO)CC(O)CS(=O)(=O)O (stereo not shown) [Example 8, Disodium; 3-[2-[3-[heptadecyl(dimethyl)ammonio]propyl-[2-[2-hydroxyethyl-(2-hydroxy-3-sulfonato-propyl)amino]ethoxy]-[2-[2-hydroxyethyl-(2-hydroxy-3-sulfo-propyl)amino]ethoxy]silyl]oxyethyl-(2-hydroxyethyl)amino]-2-hydroxy-propane-1-sulfonate; chloride] | forms a precipitate after 5 hours | dissolved in water |
| CCCCCCCCCCCCCCCCCC[N+](C)(C)CCC[Si](OCC(CO)(CO)NCCS(=O)(=O)[O-])(OCC(CO)(CO)NCCS(=O)(=O)O)OCC(CO)(CO)NCCS(=O)(=O)O [Example 4, Sodium; 7,7-bis(3-hydroxy-2-(hydroxymethyl)-2-((2-sulfoethyl)amino)propoxy)-4,4-bis(hydroxymethyl)-11,11-dimethyl-6-oxa-3,11-diaza-7-silanonacosan-11-ium-1-sulfonate; chloride] |  | dissolved quickly in water, initially hazy but slowly forms clear |
| CCCCCCCCCCCCCCCCCC[N+](C)(C)CCC[Si](OCC(CO)(CO)NCCS(=O)(=O)[O-])(OCC(CO)(CO)NCCS(=O)(=O)O)OCC(CO)(CO)NCCS(=O)(=O)O.[Cl-].[Na+] [Example 21, Monosodium; 2-[[1-[[3-[dimethyl(octadecyl)ammonio]propyl-[3-hydroxy-2-(hydroxymethyl)-2-(2-sulfoethylamino)propoxy]-[3-hydroxy-2-(hydroxymethyl)-2-(2-sulfonatoethylamino)propoxy]silyl]oxymethyl]-2-hydroxy-1-(hydroxymethyl)ethyl]amino]ethanesulfonate chloride] |  | dissolves readily in water |
| CCCCCCCCCCCCCCCCCC[N+](C)(C)CCC[Si](OCC(CO)(CO)NCC(O)CS(=O)(=O)[O-])(OCC(CO)(CO)NCC(O)CS(=O)(=O)O)OCC(CO)(CO)NCC(O)CS(=O)(=O)O (stereo not shown) [Example 2, Disodium; 3-[[1-[[3-[dimethyl(octadecyl)ammonio]propyl-[3-hydroxy-2-(hydroxymethyl)-2-[(2-hydroxy-3-sulfonato-propyl)amino]propoxy]-[3-hydroxy-2-(hydroxymethyl)-2-[(2-hydroxy-3-sulfo-propyl)amino]propoxy]silyl]oxymethyl]-2-hydroxy-1-(hydroxymethyl)ethyl]amino]-2-hydroxy-propane-1-sulfonate; chloride] |  | dissolves in water |
| CCCCCCCCCCCCCCCCC[N+](C)(C)CCC[Si]1(O[C@H](C(=O)O)[C@H](O)[C@H](O)[C@@H](O)C(=O)O)O[C@@H]([C@H](O)C(=O)O)[C@H](O)[C@H](C(=O)O)O1 (stereo partly drawn) [Example 17, N-(3-((4R,5S,6R)-4-carboxy-6-((S)-carboxy(hydroxy)methyl)-2-((1S,2R,3S,4R)-1,4-dicarboxy-2,3,4-trihydroxybutoxy)-5-hydroxy-1,3,2-dioxasilinan-2-yl)propyl)-N,N-dimethylheptadecan-1-aminium chloride] | quickly decomposed to for a biphasic mixture | poorly dissolved in water |
| CCCCCCCCCCCCCCCCCC[N+](C)(C)CCC[Si](OCC(CO)(CO)NCCS(=O)(=O)[O-])(OCC(CO)(CO)NCCS(=O)(=O)O)OCC(CO)(CO)NCCS(=O)(=O)O [Example 1, Disodium; 2-[[1-[[3-[dimethyl(octadecyl)ammonio]propyl-[3-hydroxy-2-(hydroxymethyl)-2-(2-sulfoethylamino)propoxy]-[3-hydroxy-2-(hydroxymethyl)-2-(2-sulfonatoethylamino)propoxy]silyl]oxymethyl]-2-hydroxy-1-(hydroxymethyl)ethyl]amino]ethanesulfonate chloride] |  | dissolves in water |
| Disodium, 7-(2-((carboxymethyl)(2-hydroxyethyl)amino)ethoxy)-7-(3-(heptadecyldimethylammonio)propyl)-3,11-bis(2-hydroxyethyl)-6,8-dioxa-3,11-diaza-7-silatridecanedioate; chloride [Example 13] | soon formed a suspension | readily dissolved in water |
| CCCCCCCCCCCCCCCCC[N+](C)(C)CCC[Si]12OC[C@@H](O)[C@H](O1)[C@H](O)[C@H](C(=O)[O-])O2 [Example 16, Sodium (3R,4S,5S,6R)-1-(3-(heptadecyldimethylammonio)propyl)-4,6-dihydroxy-2,8,9-trioxa-1-silabicyclo[3.3.1]nonane-3-carboxylate; Chloride] | quickly decomposed to for a biphasic mixture | poorly dissolved in water |
| CCCCCCCCCCCCCCCCCC[N+](C)(C)CCC[Si](OCC(CO)(CO)NCC(=O)[O-])(OCC(CO)(CO)NCC(=O)[O-])OCC(CO)(CO)NCC(=O)O.[Cl-].[Na+].[Na+] [Example 10, Disodium, 7-(2-((carboxymethyl)amino)-3-hydroxy-2-(hydroxymethyl)propoxy)-7-(3-(dimethyl(octadecyl)ammonio)propyl)-4,4,10,10-tetrakis(hydroxymethyl)-6,8-dioxa-3,11-diaza-7-silatridecanedioate; chloride] |  | readily dissolved in water |
